We go through 26 molecules from US10844023B2 (Washington University, priority 2017, dated 2020).

This assay concerns Mfn2 null MEFs. Nature of the assay: Mitochondrial elongation (aspect ratio) fusogenicity assay. It counts as cell-based, mouse. More on the design: % long compare to B: dose or concentration left out as unconfirmed. The settings on record: for % long compare to B: mitochondrial elongation relative to Cpd B (B01 = 100), Mfn2 null MEFs, compound overnight as printed (FIG. 48).

Regarding `CC(Sc1nnc(N2CCOCC2)n1Cc1ccccc1)C(=O)Nc1ccc2c(c1)OCCO2` (stereo not drawn) [A09, 2-{[4-benzyl-5-(morpholin-4-yl)-4H-1,2,4-triazol-3-yl]sulfanyl}-N-(2,3-dihydro-1,4-benzodioxin-6-yl)propanamide], the “% long compare to B” value stood at 55%. As for `CC1CCCCC1NC(=O)NCCSCc1ccccc1` (stereo not drawn) [A10, 1-[2-(benzylsulfanyl)ethyl]-3-(2-methylcyclohexyl)urea], the “% long compare to B” value was found to be 71%. Moreover, where the note is “rank order of aspect ratio among 44 soluble library compounds”, the “Fusogenicity Rank” value is 4. Regarding `Cc1ccc(-n2nnnc2SC(C)c2nc(-c3nnc[nH]3)no2)cc1` (stereo not drawn) [A11, 1-(4-methylphenyl)-5-({1-[3-(4H-1,2,4-triazol-3-yl)-1,2,4-oxadiazol-5-yl]ethyl}sulfanyl)-1H-1,2,3,4-tetrazole], the “% long compare to B” value is 4%. In the case of `NC(=O)c1c(NC(=O)CSc2ccccc2)sc2c1CCC2` [B2, 2-[2-(phenylsulfanyl)acetamido]-4H,5H,6H-cyclopenta[b]thiophene-3-carboxamide], the “% long compare to B” value turned out to be 12%. The same measure, in the same setting: the same measure for `CC(Sc1nnc(N2CCOCC2)n1Cc1ccccc1)C(=O)Nc1ccc2[nH]c(=O)[nH]c2c1` (stereo not drawn) [B03, 2-{[4-benzyl-5-(morpholin-4-yl)-4H-1,2,4-triazol-3-yl]sulfanyl}-N-(2-oxo-2,3-dihydro-1H-1,3-benzodiazol-5-yl)propanamide]: 39%; for `S=C(NCCSCc1ccco1)NC1CC2CCC1C2` (stereo not drawn) [B04, 1-{bicyclo[2.2.1]heptan-2-yl}-3-(2-{[(furan-2-yl)methyl]sulfanyl}ethyl)thiourea]: 9%; for `CC(Sc1nnc(C2CC2)n1Cc1ccccc1)C(=O)Nc1sccc1C(N)=O` (stereo not drawn) [B4, 2-{2-[(4-benzyl-5-cyclopropyl-4H-1,2,4-triazol-3-yl)sulfanyl]propanamido}thiophene-3-carboxamide]: 4%. As for `CC(C)(C)NC(=O)NC(=O)COC(=O)CSCc1nc2scc(-c3ccccc3)c2c(=O)[nH]1` [B07, 2-[(tert-butylcarbamoyl)amino]-2-oxoethyl 2-[({4-oxo-5-phenyl-3H,4H-thieno[2,3-d]pyrimidin-2-yl}methyl)sulfanyl] acetate], the “% long compare to B” value was found to be 64%. For the molecule `Cc1ccc(-c2noc(CSCCCC(=O)Nc3c(C)cccc3C)n2)cc1F` [B08, N-(2,6-dimethylphenyl)-4-({[3-(3-fluoro-4-methylphenyl)-1,2,4-oxadiazol-5-yl]methyl}sulfanyl)-butanamide], the “% long compare to B” value came to 12%. Still for that read-out and setting: with `O=C(NCCSCc1ccc(Br)s1)C1CCCN(C(=O)c2cccs2)C1` (stereo not drawn) [B09, N-(2-{[(5-bromothiophen-2-yl)methyl]sulfanyl}-ethyl)-1-(thiophene-2-carbonyl)piperidine-3-carboxamide] the figure was 36%.

`Cc1cccc(C)c1NC(=O)CCCSCc1ncc(C(C)C)o1` [B10, N-(2,6-dimethylphenyl)-4-({[5-(propan-2-yl)-1,3-oxazol-2-yl]methyl}sulfanyl)-butanamide]: the “% long compare to B” value was 6%.

Take `O=C(NCCSCc1ccsc1)C1CC2CCCC(C1)C2=O` (stereo not drawn) [B11, 9-oxo-N-(2-{[(thiophen-3-yl)methyl]sulfanyl}-ethyl)bicyclo[3.3.1]-nonane-3-carboxamide]: the “% long compare to B” value was found to be 23%. For the molecule `Cc1ccc(-n2c(SC(C)C(=O)Nc3ccnn3C(C)C)nnc2N2CCOCC2)cc1` (stereo not drawn) [C01, 2-{[4-(4-methylphenyl)-5-(morpholin-4-yl)-4H-1,2,4-triazol-3-yl]sulfanyl}-N-[1-(propan-2-yl)-1H-pyrazol-5-yl]propanamide], the “% long compare to B” value worked out at 16%. For the molecule `CCCc1noc(C(C)Sc2nc3cc(C)ccc3[nH]2)n1` (stereo not drawn) [C02, 5-methyl-2-{[1-(3-propyl-1,2,4-oxadiazol-5-yl)ethyl]sulfanyl}-1H-1,3-benzodiazole], the “% long compare to B” value is on record as 14%.

Regarding `COc1ccc(SC(C)C(=O)Nc2cc[nH]n2)cc1` (stereo not drawn) [C03, 2-[(4-methoxyphenyl)sulfa-nyl]-N-(1H-pyrazol-3-yl)propanamide], the “% long compare to B” value turned out to be 10%. Take `CCC(C)C1N=C2c3ccccc3N=C(SC(C)C(=O)Nc3cc(OC)cc(OC)c3)N2C1=O` (stereo not drawn) [C04, 2-{[2-(butan-2-yl)-3-oxo-2H,3H-imidazo[1,2-c]quinazolin-5-yl]sulfanyl}-N-(3,5-dimethoxyphenyl)pro-panamide]: the “% long compare to B” value is −1%. Still for that read-out and setting: the same measure for `O=C(CSCCc1ccccn1)Nc1ccc(Cl)c(Cl)c1` [C06, N-(3,4-dichlorophenyl)-2-{[2-(pyridin-2-yl)ethyl]sulfanyl}-acetamide]: −8%; for `O=C(CSCc1ccc(F)cc1)N1CCc2c([nH]c3ccccc23)C1c1ccc(Cl)cc1` (stereo not drawn) [C07, 1-[1-(4-chlorophenyl)-1H,2H,3H,4H,9H-pyrido[3.4-b]indol-2-yl]-2-{[(4-fluorophenyl)methyl]sulfanyl}ethan-1-one]: 29%.

With `Cc1ccc(C(C)C)c(OCCCSCc2nc3ccccc3[nH]2)c1` [C09, 2-[({3-[5-methyl-2-(propan-2-yl)phenoxy]propyl}-sulfanyl)methyl]-1H-1,3-benzodiazole], the “% long compare to B” value is listed as −5%. With `CC(/N=N/C(=N)SC1CC(=O)N(c2cccc(C(=O)O)c2)C1=O)c1ccccc1` (stereo not drawn) [C10, 3-(2,5-dioxo-3-{[(E)-N-[(1-phenylethyl)imino]car-bamimidoyl]sul-fanyl}pyrrolidin-1-yl)benzoic acid], the “% long compare to B” value is recorded as 0%.

For `Cc1ccc(NC(=O)CC2SC(NC(c3ccc(C(C)C)cc3)c3c(O)[nH]c(=O)[nH]c3=O)=NC2=O)c(C)c1` (stereo not drawn) [C11, N-(2,4-dimethylphenyl)-2-(2-{[(6-hydroxy-2,4-dioxo-1,2,3,4-tetrahydropyrimidin-5-yl)[4-(propan-2-yl)phenyl]methyl]am-ino}-4-oxo-4,5-dihydro-1,3-thiazol-5-yl)acetamide], the “% long compare to B” value is given as −4%.

`CCOc1ccccc1NC(=O)CSCc1cc(=O)c2ccc(C)c(C)c2[nH]1` [D01, 2-{[(7,8-dimethyl-4-oxo-1,4-dihydroquinolin-2-yl)methyl]sulfanyl}-N-(2-ethoxyphenyl)acetamide]: the “% long compare to B” value was 9%.

Turning to `Cc1ccc(C(=O)C(C)Sc2nnc3c(=O)n(-c4ccc(C)c(C)c4)ccn23)cc1C` (stereo not drawn) [D02, 7-(3,4-dimethylphenyl)-3-{[1-(3,4-dimethylphenyl)-1-oxopropan-2-yl]sulfanyl}-7H,8H-[1,2,4]triazolo[4,3-a]pyrazin-8-one], the “% long compare to B” value was found to be 13%. As to `O=C(CSCC(=O)N1CCCc2ccccc21)Nc1ccccc1` [D03, 2-{[2-oxo-2-(1,2,3,4-tetrahydroquinolin-1-yl)ethyl]sulfanyl}-N-phenylacetamide], the “% long compare to B” value is −17%. As for `CCOC(=O)c1sc(NC(=O)C(CC)Sc2nnc3c(n2)[nH]c2ccccc23)nc1C` (stereo not drawn) [D04, ethyl 4-methyl-2-(2-{5H-[1,2,4]triazino[5,6-b]indol-3-ylsulfanyl}butanamido)-1,3-thiazole-5-carboxylate], the “% long compare to B” value was determined as 24%.

As for `COc1ccc2c(c1)C1(SCCN1C(=O)c1ccccc1C)C(=O)N2Cc1cccc(C(F)(F)F)c1` (stereo not drawn) [D05, 5-methoxy-3′-(2-methylbenzoyl)-1-{[3-(trifluoromethyl)-phenyl]methyl}-1,2-dihydrospiro[indole-3,2′-[1,3]thiazolidine]-2-one], the “% long compare to B” value turned out to be 4%.
